Results published in patent US20240158393A1, “PYRIDONE COMPOUNDS AND METHODS OF USE” (Exelixis, Inc., priority 2021, published 2024).

target: T1, Human Mer (Homo sapiens, UniProt Q12866); experiment: Human Mer kinase assay (33P radiometric / HTRF KinEase); assay type: biochemical; settings: protocols of Examples C-1 and/or C-2
T1 construct: Human Mer (residues R557-E882 with H628Q and R794A, 0.7 nM); purchased Eurofins Pharma Discovery Services UK Limited (KinaseProfiler service)
T1 sequence (Q12866 557-882 limits assumed): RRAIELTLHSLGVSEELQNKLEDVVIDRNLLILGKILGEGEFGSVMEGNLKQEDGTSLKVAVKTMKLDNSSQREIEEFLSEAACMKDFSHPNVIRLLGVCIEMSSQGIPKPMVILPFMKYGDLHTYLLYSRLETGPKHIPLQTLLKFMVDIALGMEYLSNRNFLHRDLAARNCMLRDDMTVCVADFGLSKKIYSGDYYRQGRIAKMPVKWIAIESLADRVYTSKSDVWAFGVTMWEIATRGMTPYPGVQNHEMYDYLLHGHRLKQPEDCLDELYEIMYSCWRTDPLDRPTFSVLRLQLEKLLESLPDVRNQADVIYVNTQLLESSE
Procedure, shortened: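 Two formats yield IC50 values. HTRF KinEase used MER residues 528-999 with ATP at Km (40 μM), 1 μM biotin-peptide, 60 min RT, […], 10 concentrations. 33P filter assay used 0.7 nM Mer R557-E882 (H628Q/R794A), 10 μM ATP, 250 μM peptide, 40 min RT, top 1 μM.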

SMILES | IC50 [nM]
COc1cc2nccc(Oc3ccc(NC(=O)c4c(C)nc(C)c(C#N)c4O)cc3F)c2nc1OC [Compound 87, 5-Cyano-N-[4-[(6,7-dimethoxy-1,5-naphthyridin-4-yl)oxy]-3-fluorophenyl]-4-hydroxy-2,6-dimethylpyridine-3-carboxamide] | > 300
COc1cc2nccc(Oc3ccc(NC(=O)c4c(C)n(C)c(C)c(N5CCCC5)c4=O)cc3F)c2nc1OC [Compound 89, N-[4-[(6,7-Dimethoxy-1,5-naphthyridin-4-yl)oxy]-3-fluorophenyl]-1,2,6-trimethyl-4-oxo-5-pyrrolidin-1-ylpyridine-3-carboxamide] | ≤ 100
COc1cc2nccc(Oc3ccc(NC(=O)c4cnc(C)c(/C=C/CC(C)C)c4O)cc3F)c2cc1OC [Compound 29, N-[4-(6,7-Dimethoxyquinolin-4-yl)oxy-3-fluorophenyl]-4-hydroxy-6-methyl-5-[(E)-4-methylpent-1-enyl]pyridine-3-carboxamide] | ≤ 100
COc1cc2nccc(Oc3cc(F)c(NC(=O)c4c(C)nc(C)c(C(C)C)c4O)cc3F)c2nc1OC [Compound 10, N-[4-[(6,7-Dimethoxy-1,5-naphthyridin-4-yl)oxy]-2,5-difluorophenyl]-4-hydroxy-2,6-dimethyl-5-propan-2-ylpyridine-3-carboxamide] | ≤ 100
COCCOc1cc2nccc(Oc3ccc(NC(=O)c4cnc(C)c(/C=C/C(C)(C)C)c4O)cc3F)c2nc1OC [Compound 40, 5-[(E)-3,3-Dimethylbut-1-enyl]-N-[3-fluoro-4-[[6-methoxy-7-(2-methoxyethoxy)-1,5-naphthyridin-4-yl]oxy]phenyl]-4-hydroxy-6-methylpyridine-3-carboxamide] | ≤ 100
COCCOc1cc2nccc(Oc3cc(F)c(NC(=O)c4c(C)nc(C)c(C(N)=O)c4O)cc3F)c2nc1OC [Compound 86, 3-N-[2,5-Difluoro-4-[[6-methoxy-7-(2-methoxyethoxy)-1,5-naphthyridin-4-yl]oxy]phenyl]-4-hydroxy-2,6-dimethylpyridine-3,5-dicarboxamide] | > 300
COc1cc2nccc(Oc3ccc(NC(=O)c4c(C)ccn(C(C)C)c4=O)cc3F)c2nc1OC [Compound 38, N-[4-[(6,7-Dimethoxy-1,5-naphthyridin-4-yl)oxy]-3-fluorophenyl]-4-methyl-2-oxo-1-propan-2-ylpyridine-3-carboxamide] | ≤ 100
COc1cc2nccc(Oc3ccc(NC(=O)c4cnc(C)c(/C=C/C(C)(C)C)c4O)cc3F)c2nc1OC [Compound 27, N-[4-[(6,7-Dimethoxy-1,5-naphthyridin-4-yl)oxy]-3-fluorophenyl]-5-[(E)-3,3-dimethylbut-1-enyl]-4-hydroxy-6-methylpyridine-3-carboxamide] | ≤ 100
COc1cc2nccc(Oc3ccc(NC(=O)c4c(C)n(C)c(C)c(C#N)c4=O)cc3)c2nc1OC [Compound 82, 5-Cyano-N-[4-[(6,7-dimethoxy-1,5-naphthyridin-4-yl)oxy]phenyl]-1,2,6-trimethyl-4-oxopyridine-3-carboxamide] | > 300
COc1cc2nccc(Oc3ccc(NC(=O)c4c(C)nc(C)c(C(N)=O)c4O)cc3F)c2nc1OC [Compound 84, 3-N-[4-[(6,7-Dimethoxy-1,5-naphthyridin-4-yl)oxy]-3-fluorophenyl]-4-hydroxy-2,6-dimethylpyridine-3,5-dicarboxamide] | > 300
COc1ccc2nccc(Oc3ccc(NC(=O)c4cnc(C)c(C5=CCOCC5)c4O)cc3F)c2n1 [Compound 1-5, 5-(3,6-Dihydro-2H-pyran-4-yl)-N-[3-fluoro-4-[(6-methoxy-1,5-naphthyridin-4-yl)oxy]phenyl]-4-hydroxy-6-methylpyridine-3-carboxamide] | ≤ 100
COCCOc1cc2nccc(Oc3ccc(NC(=O)c4cnc(C)c(C5=CCCCC5)c4O)cc3F)c2nc1OC [Compound 34, 5-(Cyclohexen-1-yl)-N-[3-fluoro-4-[[6-methoxy-7-(2-methoxyethoxy)-1,5-naphthyridin-4-yl]oxy]phenyl]-4-hydroxy-6-methylpyridine-3-carboxamide] | ≤ 100
COc1cc2nccc(Oc3ccc(NC(=O)c4c(C)nc(C)c(C(N)=O)c4O)cc3)c2nc1OC [Compound 85, 3-N-[4-[(6,7-Dimethoxy-1,5-naphthyridin-4-yl)oxy]phenyl]-4-hydroxy-2,6-dimethylpyridine-3,5-dicarboxamide] | > 300
COc1cc2nccc(Oc3ccc(NC(=O)c4cnc(C)c(C5=CCCCC5)c4O)cc3F)c2cc1OC [Compound 23, 5-(Cyclohexen-1-yl)-N-[4-(6,7-dimethoxyquinolin-4-yl)oxy-3-fluorophenyl]-4-hydroxy-6-methylpyridine-3-carboxamide] | ≤ 100
CNC(=O)c1c(C)nc(C)c(C(=O)Nc2ccc(Oc3ccnc4cc(OC)c(OC)nc34)c(F)c2)c1O [Compound 97, 3-N-[4-[(6,7-Dimethoxy-1,5-naphthyridin-4-yl)oxy]-3-fluorophenyl]-4-hydroxy-5-N,2,6-trimethylpyridine-3,5-dicarboxamide] | > 300
COc1cc2nccc(Oc3ccc(NC(=O)c4cn(CCF)c(C)c(C5CCCC5)c4=O)cc3F)c2nc1OC [Compound 13, 5-Cyclopentyl-N-[4-[(6,7-dimethoxy-1,5-naphthyridin-4-yl)oxy]-3-fluorophenyl]-1-(2-fluoroethyl)-6-methyl-4-oxopyridine-3-carboxamide] | ≤ 100
COc1cc2nccc(Oc3ccc(NC(=O)c4c5n(c(C)c(C6=CCCCC6)c4=O)CCOC5)cc3)c2nc1OC [Compound 100, 7-(Cyclohexen-1-yl)-N-[4-[(6,7-dimethoxy-1,5-naphthyridin-4-yl)oxy]phenyl]-6-methyl-8-oxo-3,4-dihydro-1H-pyrido[2,1-c][1,4]oxazine-9-carboxamide] | ≤ 100
COc1cc2nccc(Oc3ccc(NC(=O)c4c(C)n(C)c(C)c(C(=O)O)c4=O)cc3F)c2nc1OC [Compound 92, 5-[[4-[(6,7-Dimethoxy-1,5-naphthyridin-4-yl)oxy]-3-fluorophenyl]carbamoyl]-1,2,6-trimethyl-4-oxopyridine-3-carboxylic acid] | > 300
COc1cc2nccc(Oc3ccc(NC(=O)c4cn(CCF)c(C)c(C5=CCCC5)c4=O)cc3F)c2nc1OC [Compound 11, 5-(Cyclopenten-1-yl)-N-[4-[(6,7-dimethoxy-1,5-naphthyridin-4-yl)oxy]-3-fluorophenyl]-1-(2-fluoroethyl)-6-methyl-4-oxopyridine-3-carboxamide] | ≤ 100
